These compounds were tested on Leishmania major (assay: In vitro inhibition of growth of Leishmania major promastigotes with the compound dissolved in DMSO using 3-H thymidine incorporation).
Format: functional, organism-based

First: O=[N+]([O-])c1ccc(-c2nnc(N3CCOCC3)s2)o1
Second: O=[N+]([O-])c1ccc(-c2nnc(N3CCNCC3)s2)o1
The IC50 of the first is 1.7-fold lower: 5.2 µM for the first, 8.9 µM for the second.

Compared with O=C(c1ccccc1)N1CCN(c2nnc(-c3ccc([N+](=O)[O-])o3)s2)CC1, O=[N+]([O-])c1ccc(-c2nnc(N3CCN(c4ccccc4)CC3)s2)o1 is 5-fold lower in IC50: 0.5 µM for the first, 0.1 µM for the second.

First: CC(=O)N1CCN(c2nnc(-c3ccc([N+](=O)[O-])o3)s2)CC1
Second: CN1CCN(c2nnc(-c3ccc([N+](=O)[O-])o3)s2)CC1
The IC50 of the first is 6.6-fold lower: 1.1 µM for the first, 7.3 µM for the second.

Going from O=[N+]([O-])c1ccc(-c2nnc(N3CCOCC3)s2)s1 to O=[N+]([O-])c1ccc(-c2nnc(N3CCNCC3)s2)s1, the IC50 rises from 10.6 µM to > 150 µM. The first is the more potent here.

First: O=C(c1ccccc1)N1CCN(c2nnc(-c3ccc([N+](=O)[O-])s3)s2)CC1
Second: O=[N+]([O-])c1ccc(-c2nnc(N3CCN(c4ccccc4)CC3)s2)s1
The IC50 of the first is 9.5-fold lower: 11.1 µM for the first, 106 µM for the second.

First: CC(=O)N1CCN(c2nnc(-c3ccc([N+](=O)[O-])s3)s2)CC1
Second: CN1CCN(c2nnc(-c3ccc([N+](=O)[O-])s3)s2)CC1
The IC50 of the first is 2.1-fold lower: 48.5 µM for the first, 103 µM for the second.

Going from O=[N+]([O-])c1ccc(-c2nnc(N3CCCCC3)s2)o1 to O=[N+]([O-])c1ccc(-c2nnc(N3CCCCC3)s2)s1, the IC50 rises from 3.2 µM to > 150 µM. The first is the more potent here.
